In ChEMBL document CHEMBL5352434, “Design, synthesis, and biological evaluation of ocotillol derivatives fused with 2-aminothiazole via A-ring as modulators of P-glycoprotein-mediated multidrug resistance” (Eur J Med Chem, 2022) one finds IC50, Activity and viability data, which are given here for three compounds.

Molecules are shown by their SMILES. Calls of active or inactive are those of the source. No cut-off for these calls is given here.

Data set [1] is described as follows: Cytotoxicity against multi-drug resistance human KBV cells assessed as cell survival in presence of 10 uM (20S,24R)-Epoxy-3-beta-N-glycyl-[3,2-b]thiazole-dammarane-12-beta,25-diol incubated for 72 hrs by MTT assay. It counts as functional, cell-based.
Data set [2] can be described thus: Cytotoxicity against multi-drug resistance human KBV cells assessed as cell survival in presence of Verapamil incubated for 72 hrs by MTT assay. Format: functional, cell-based.
Data set [3] can be described thus: Cytotoxicity against multi-drug resistance human KBV cells assessed as cell survival incubated for 72 hrs by MTT assay. Format: functional, cell-based.
Data set [4] can be described thus: Cytotoxicity against multi-drug resistance human KBV cells assessed as cell survival in presence of Tariquidar incubated for 72 hrs by MTT assay. It counts as functional, cell-based.
Data set [5] is described as follows: Cytotoxicity against multi-drug resistance human KBV cells assessed as cell survival in presence of 5 uM (20S,24R)-Epoxy-3-beta-N-glycyl-[3,2-b]thiazole-dammarane-12-beta,25-diol incubated for 72 hrs by MTT assay. It counts as functional, cell-based.
The nature of data set [6]: Toxicity in BALB/c nude mouse xenografted with human MDR KBV cells assessed as change in body weight administered at 30 mg/kg every 3 days for 18 days. To be noted: in vivo, 432 h, time 18 day. Format: organism-based.
A short description of data set [7]: Cytotoxicity against multi-drug resistance human KBV cells assessed as cell survival rate at 10 uM in presence of 100 nM Paclitaxel incubated for 72 hrs by MTT assay. Format: functional. To be noted: read-out: Survival.
The next data set has as its system KBV. Briefly: Antitumor activity against human MDR KBV cells xenografted in BALB/c nude mouse assessed as change in tumor volume at 30 mg/kg every 3 days for 18 days. To be noted: time 18.0 day. It counts as functional, organism-based.

`CC[C@]1(O)C[C@H]2CN(CCc3c([nH]c4ccccc34)[C@@](C(=O)OC)(c3cc4c(cc3OC)N(C=O)[C@H]3[C@@](O)(C(=O)OC)[C@H](OC(C)=O)[C@]5(CC)C=CCN6CC[C@]43[C@@H]65)C2)C1` [VINCRISTINE]: the IC50 in data set [1] is 1.18 nM; in data set [2], 1.63 nM; in data set [3], 559 nM; in data set [4], 1.5 nM; in data set [5], 13.7 nM.
With `CC(=O)O[C@H]1C(=O)[C@@]2(C)[C@H]([C@H](OC(=O)c3ccccc3)[C@]3(O)C[C@H](OC(=O)[C@H](O)[C@@H](NC(=O)c4ccccc4)c4ccccc4)C(C)=C1C3(C)C)[C@]1(OC(C)=O)CO[C@@H]1C[C@@H]2O` [PACLITAXEL], the IC50 worked out at 2.17 nM in data set [1]; 9.66 nM in data set [2]; 788 nM in data set [3]; 2.16 nM in data set [4]; 58.5 nM in data set [5]. The Activity entry in data set [6] was “Non-Toxic”. In addition, the viability at 10 µM in data set [7] amounted to 99.3%. For the same compound, in the data set on KBV, the result was inactive.
On to `O=C1c2c(O)ccc(O)c2C(=O)c2c(NCCNCCO)ccc(NCCNCCO)c21` [MITOXANTRONE], for which the IC50 was found to be 61.9 nM in data set [1]; 97.5 nM in data set [2]; 299 nM in data set [3]; 90 nM in data set [4]; 165 nM in data set [5].
